Where “and” joins values, the source holds several entries; their conditions need not be identical. Equal entries are not always repeated. Inconclusive results and toxic doses are left out.

This assay relates to L1210 leukemia ip in BDF1 mice, survival T/C. Briefly: NCI In Vivo Anticancer Drug Screen. Data for tumor model L1210 Leukemia (intraperitoneal) in B6D2F1 (BDF1) mice. To be noted: endpoint: mean survival time, higher = longer survival. The method in brief:
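Tumor was transplanted into mice, which were then dosed with test compound or vehicle alone. Survival was recorded for each group, and the treated figure was expressed relative to the control figure.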

[1] abbreviates: dose: 100.0 mg/kg/injection, schedule: Q01DX009 (ip), vehicle: saline with Tween-80.
Where [2] appears, read: dose: 200.0 mg/kg/injection, schedule: Q01DX009 (ip), vehicle: saline with Tween-80.
Where [3] appears, read: dose: 100.0 mg/kg/injection, schedule: Q01DX009 (ip), vehicle: Klucel (hydroxypropylcellulose) (HPC).
[4] abbreviates: dose: 100.0 mg/kg/injection, schedule: Q04DX003 (ip), vehicle: Klucel (hydroxypropylcellulose) (HPC).
[5] abbreviates: dose: 200.0 mg/kg/injection, schedule: Q01DX009 (ip), vehicle: Klucel (hydroxypropylcellulose) (HPC).
The mark [6] stands for this setting: dose: 200.0 mg/kg/injection, schedule: Q04DX003 (ip), vehicle: Klucel (hydroxypropylcellulose) (HPC).
Setting [7] is: dose: 400.0 mg/kg/injection, schedule: Q01DX009 (ip), vehicle: Klucel (hydroxypropylcellulose) (HPC).
Where [8] appears, read: dose: 400.0 mg/kg/injection, schedule: Q04DX003 (ip), vehicle: Klucel (hydroxypropylcellulose) (HPC).
The mark [9] stands for this setting: dose: 100.0 mg/kg/injection, schedule: Q04DX003 (ip), vehicle: saline with Tween-80.
The mark [10] stands for this setting: dose: 200.0 mg/kg/injection, schedule: Q04DX003 (ip), vehicle: saline with Tween-80.
The mark [11] stands for this setting: dose: 400.0 mg/kg/injection, schedule: Q04DX003 (ip), vehicle: saline with Tween-80.
The mark [12] stands for this setting: dose: 100.0 mg/kg/injection, schedule: Q01DX001 (ip), vehicle: saline with Tween-80.
[13] abbreviates: dose: 200.0 mg/kg/injection, schedule: Q01DX001 (ip), vehicle: saline with Tween-80.
The mark [14] stands for this setting: dose: 400.0 mg/kg/injection, schedule: Q01DX001 (ip), vehicle: saline with Tween-80.
The mark [15] stands for this setting: dose: 100.0 mg/kg/injection, schedule: Q01DX001 (ip), vehicle: carboxymethylcellulose (CMC).
[16] abbreviates: dose: 200.0 mg/kg/injection, schedule: Q01DX001 (ip), vehicle: carboxymethylcellulose (CMC).
The mark [17] stands for this setting: dose: 400.0 mg/kg/injection, schedule: Q01DX001 (ip), vehicle: carboxymethylcellulose (CMC).
[18] abbreviates: dose: 400.0 mg/kg/injection, schedule: Q01DX009 (ip), vehicle: saline with Tween-80.

Regarding `CC1(C)C2CC=C(CCOC(=O)COc3cc(Cl)c(Cl)cc3Cl)C1C2` (stereo unspecified), the T/C by setting is: (dose: 160.0 mg/kg/injection, schedule: Q01DX Z (ip), vehicle: other) 105 % of control; (dose: 240.0 mg/kg/injection, schedule: Q01DX Z (ip), vehicle: other) 109 % of control; (dose: 350.0 mg/kg/injection, schedule: Q01DX Z (ip), vehicle: other) 88 % of control.
Take `CCOC(=O)CN1C(=O)CN=C(c2ccccn2)c2cc(Cl)ccc21`: the T/C was 91 % of control under setting [1] and 93 % of control under setting [2].
Take `CC(=O)Oc1cc(O)c2c(c1)OC(C)(C)CC2=O`: the T/C by setting is: under setting [3], 98 % of control; under setting [4], 93 % of control; under setting [5], 98 % of control; under setting [6], 100 % of control; under setting [7], 96 % of control; under setting [8], 97 % of control.
As to `CCOc1ccccc1C1CCCCC1OS(=O)(=O)c1ccc(C)cc1` (stereo unspecified), the T/C runs as follows: (dose: 50.0 mg/kg/injection, schedule: Q01DX009 (ip), vehicle: acetone) 92 % of control; (dose: 100.0 mg/kg/injection, schedule: Q01DX009 (ip), vehicle: acetone) 94 % of control and 92 % of control; (dose: 200.0 mg/kg/injection, schedule: Q01DX009 (ip), vehicle: acetone) 105 % of control and 90 % of control.
On to `O=C(c1ccc([N+](=O)[O-])cc1)c1ccn[nH]1`, for which the T/C (dose: 100.0 mg/kg/injection, schedule: Q01DX001 (ip), vehicle: Klucel (hydroxypropylcellulose) (HPC)) was 103 % of control; the T/C (dose: 200.0 mg/kg/injection, schedule: Q01DX001 (ip), vehicle: Klucel (hydroxypropylcellulose) (HPC)) was 99 % of control; the T/C (dose: 400.0 mg/kg/injection, schedule: Q01DX001 (ip), vehicle: Klucel (hydroxypropylcellulose) (HPC)) was 94 % of control.
Regarding `O=S1(=O)CCCCC1C(O)(c1ccccc1)c1ccccc1` (stereo unspecified), the T/C is, setting by setting: (dose: 12.5 mg/kg/injection, schedule: Q04DX002 (ip), vehicle: saline with Tween-80) 97 % of control; (dose: 25.0 mg/kg/injection, schedule: Q04DX002 (ip), vehicle: saline with Tween-80) 102 % of control; (dose: 50.0 mg/kg/injection, schedule: Q04DX002 (ip), vehicle: saline with Tween-80) 94 % of control.
For the compound `CCCCC#CC(=O)OCCC(C)C`, the T/C was 94 % of control under setting [9], 90 % of control under setting [10] and 94 % of control under setting [11].
For the compound `O=[N+]([O-])c1cccc(OCCCOc2ccc(S(=O)(=O)F)cc2)c1`, the T/C runs as follows: under setting [12], 96 % of control; under setting [13], 98 % of control; under setting [14], 90 % of control.
Regarding `CCCCN/C(C)=C/C(=O)/C=C(\C)NCCCC`, the T/C by setting is: under setting [3], 94 % of control; under setting [4], 117 % of control; under setting [5], 110 % of control; under setting [6], 96 % of control; under setting [7], 95 % of control; under setting [8], 100 % of control.
Regarding `COC(=O)C12Oc3ccc(-c4ccc5c(c4O)C(O)=C4C(=O)CC(C)C(O)C4(C(=O)OC)O5)c(O)c3C(O)=C1C(=O)CC(C)C2O` (stereo unspecified), the T/C by setting is: (dose: 1.56 mg/kg/injection, schedule: Q01DX009 (ip), vehicle: saline with Tween-80) 104 % of control; (dose: 3.13 mg/kg/injection, schedule: Q01DX009 (ip), vehicle: saline with Tween-80) 100 % of control; (dose: 6.25 mg/kg/injection, schedule: Q01DX009 (ip), vehicle: saline with Tween-80) 105 % of control and 91 % of control; (dose: 12.5 mg/kg/injection, schedule: Q04DX003 (ip), vehicle: saline with Tween-80) 98 % of control; (dose: 25.0 mg/kg/injection, schedule: Q04DX003 (ip), vehicle: saline with Tween-80) 110 % of control; (dose: 50.0 mg/kg/injection, schedule: Q04DX003 (ip), vehicle: saline with Tween-80) 104 % of control.
As to `Clc1ccc(Cc2ccc(Cl)cc2)cc1`, the T/C was 107 % of control under setting [15], 100 % of control under setting [16] and 102 % of control under setting [17].
Take `CNC(=O)Nc1ccc(C(=O)OCC(C)C)cc1`: the T/C is, setting by setting: under setting [3], 104 % of control; under setting [5], 115 % of control; under setting [7], 104 % of control.
Turning to `O=C1OC2CCC3C1C3C2Br` (stereo unspecified), under “dose: 25.0 mg/kg/injection, schedule: Q01DX009 (ip), vehicle: acetone”, the T/C was 92 % of control.
For the compound `O=C(CNC(=O)c1ccccc1)N/N=C/c1cccc2ccccc12`, the T/C was 89 % of control under setting [1], 94 % of control under setting [2] and 94 % of control under setting [18].
In the case of `NC(=O)C1CCC(C(N)=O)CC1` (stereo unspecified), the T/C was 106 % of control under setting [12]; 100 % of control under setting [1]; 100 % of control under setting [9]; 98 % of control under setting [13]; 100 % of control under setting [2]; 115 % of control under setting [10]. The T/C by setting is: under setting [14], 98 % of control; under setting [18], 107 % of control; under setting [11], 102 % of control.
As to `Cc1cccc(C)c1NCC(=O)NN`, the T/C is 106 % of control (dose: 100.0 mg/kg/injection, schedule: Q04DX002 (ip), vehicle: Klucel (hydroxypropylcellulose) (HPC)); 106 % of control (dose: 200.0 mg/kg/injection, schedule: Q04DX002 (ip), vehicle: Klucel (hydroxypropylcellulose) (HPC)); 120 % of control (dose: 400.0 mg/kg/injection, schedule: Q04DX002 (ip), vehicle: Klucel (hydroxypropylcellulose) (HPC)).
As for `c1nc(SC2CCCC2)c2[nH]cnc2n1`, the T/C is 106 % of control (dose: 5.0 mg/kg/injection, schedule: Q01DX Z (ip), vehicle: carboxymethylcellulose (CMC)); 103 % of control (dose: 10.0 mg/kg/injection, schedule: Q01DX Z (ip), vehicle: carboxymethylcellulose (CMC)); 108 % of control (dose: 10.0 mg/kg/injection, schedule: Q01DX Z (oral), vehicle: carboxymethylcellulose (CMC)); 112 % of control (dose: 21.0 mg/kg/injection, schedule: Q01DX Z (ip), vehicle: carboxymethylcellulose (CMC)); 108 % of control (dose: 21.0 mg/kg/injection, schedule: Q01DX Z (oral), vehicle: carboxymethylcellulose (CMC)); 115 % of control (dose: 25.0 mg/kg/injection, schedule: Q01DX009 (ip), vehicle: carboxymethylcellulose (CMC)). The T/C is 112 % of control (dose: 42.0 mg/kg/injection, schedule: Q01DX Z (ip), vehicle: carboxymethylcellulose (CMC)); 106 % of control (dose: 42.0 mg/kg/injection, schedule: Q01DX Z (oral), vehicle: carboxymethylcellulose (CMC)); 122 % of control (dose: 42.5 mg/kg/injection, schedule: Q01DX Z (ip), vehicle: carboxymethylcellulose (CMC)); 119 % of control (dose: 50.0 mg/kg/injection, schedule: Q01DX009 (ip), vehicle: carboxymethylcellulose (CMC)); 150 % of control (dose: 84.0 mg/kg/injection, schedule: Q01DX Z (oral), vehicle: carboxymethylcellulose (CMC)); 163 % of control (dose: 85.0 mg/kg/injection, schedule: Q01DX Z (ip), vehicle: carboxymethylcellulose (CMC)). Moreover, the T/C was 98 % of control (dose: 176.0 mg/kg/injection, schedule: Q01DX001 (ip), vehicle: carboxymethylcellulose (CMC)); 100 % of control (dose: 264.0 mg/kg/injection, schedule: Q01DX001 (ip), vehicle: carboxymethylcellulose (CMC)); 110 % of control (dose: 340.0 mg/kg/injection, schedule: Q01DX Z (ip), vehicle: carboxymethylcellulose (CMC)); 152 % of control (dose: 340.0 mg/kg/injection, schedule: Q01DX Z (oral), vehicle: carboxymethylcellulose (CMC)); 93 % of control under setting [17].
As for `COc1ccccc1CN1CCCN(Cc2ccccc2OC)C1c1cccc(F)c1`, the T/C is 112 % of control (dose: 50.0 mg/kg/injection, schedule: Q01DX001 (ip), vehicle: carboxymethylcellulose (CMC)); 108 % of control under setting [15]; 108 % of control under setting [16]; 102 % of control under setting [17].

The values are drawn from PubChem BioAssay AID248 (DTP/NCI, 2004).
